One data set concerns the target T1, hα2A receptor (Homo sapiens, UniProt P08913).
T1 construct: expressed in transfected cells; host or cells: CHO cells
T1 sequence (P08913 1-465): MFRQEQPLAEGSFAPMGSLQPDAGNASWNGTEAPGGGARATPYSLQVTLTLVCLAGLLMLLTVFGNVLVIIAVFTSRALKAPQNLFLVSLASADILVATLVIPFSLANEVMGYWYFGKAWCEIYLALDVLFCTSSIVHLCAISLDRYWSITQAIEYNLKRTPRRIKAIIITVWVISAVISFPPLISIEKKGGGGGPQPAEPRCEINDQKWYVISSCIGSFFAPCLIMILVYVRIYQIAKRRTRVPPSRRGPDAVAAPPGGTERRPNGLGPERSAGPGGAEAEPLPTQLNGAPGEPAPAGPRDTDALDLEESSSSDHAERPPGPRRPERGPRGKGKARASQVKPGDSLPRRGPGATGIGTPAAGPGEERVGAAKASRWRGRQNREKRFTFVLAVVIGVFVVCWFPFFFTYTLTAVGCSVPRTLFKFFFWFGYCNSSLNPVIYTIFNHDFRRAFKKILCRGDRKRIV
In words: Radioligand binding experiment for α2A-adrenergic receptor ([3H]-raulwolscine). Conditions: CHO cell membranes with human α2A receptor, [3H]raulwolscine 1 nM; read-out: pIC50 α2A (converted). In a few lines: (§1)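 Membranes from CHO cells stably expressing human α2A or α2C receptors (sodium butyrate-induced) incubated with 1 nM [3H]raulwolscine in 25 mM glycylglycine pH 8.0 for 60 min at 25° C, then filtered. Non-specific binding defined with 1 μM oxymetazoline (α2A) or 1 μM spiroxatrine (α2C); pIC50 from sigmoidal competition curves.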

A further data set has as its target T2, hα2C receptor (Homo sapiens, UniProt P18825).
T2 construct: expressed in transfected cells; host or cells: CHO cells
T2 sequence (P18825 1-462): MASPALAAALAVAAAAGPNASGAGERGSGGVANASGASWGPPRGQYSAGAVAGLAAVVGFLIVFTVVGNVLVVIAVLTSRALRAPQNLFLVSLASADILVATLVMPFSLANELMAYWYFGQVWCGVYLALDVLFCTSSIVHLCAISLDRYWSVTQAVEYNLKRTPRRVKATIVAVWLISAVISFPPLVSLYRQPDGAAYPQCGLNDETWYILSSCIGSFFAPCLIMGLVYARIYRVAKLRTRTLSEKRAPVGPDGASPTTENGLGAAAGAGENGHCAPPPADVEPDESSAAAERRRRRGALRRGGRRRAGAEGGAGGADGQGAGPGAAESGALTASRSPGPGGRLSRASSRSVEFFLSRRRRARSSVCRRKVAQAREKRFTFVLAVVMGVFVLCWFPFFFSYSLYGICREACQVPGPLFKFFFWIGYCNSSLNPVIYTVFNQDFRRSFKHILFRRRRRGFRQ
Kind of data set: Radioligand binding experiment for α2C-adrenergic receptor ([3H]-raulwolscine). The settings on record: CHO cell membranes with human α2C receptor, [3H]raulwolscine 1 nM; read-out: pIC50 α2C (converted). In a few lines: as §1

For a further data set, the target named is T3, h5-HT transporter (Homo sapiens, UniProt P31645).
T3 construct: Human platelet membranes (Oceanix Biosciences Corporation, Hanover, Md., USA) were thawed; tissue Oceanix Biosciences Corporation; host or cells: human platelet membranes
T3 sequence (P31645 whole entry): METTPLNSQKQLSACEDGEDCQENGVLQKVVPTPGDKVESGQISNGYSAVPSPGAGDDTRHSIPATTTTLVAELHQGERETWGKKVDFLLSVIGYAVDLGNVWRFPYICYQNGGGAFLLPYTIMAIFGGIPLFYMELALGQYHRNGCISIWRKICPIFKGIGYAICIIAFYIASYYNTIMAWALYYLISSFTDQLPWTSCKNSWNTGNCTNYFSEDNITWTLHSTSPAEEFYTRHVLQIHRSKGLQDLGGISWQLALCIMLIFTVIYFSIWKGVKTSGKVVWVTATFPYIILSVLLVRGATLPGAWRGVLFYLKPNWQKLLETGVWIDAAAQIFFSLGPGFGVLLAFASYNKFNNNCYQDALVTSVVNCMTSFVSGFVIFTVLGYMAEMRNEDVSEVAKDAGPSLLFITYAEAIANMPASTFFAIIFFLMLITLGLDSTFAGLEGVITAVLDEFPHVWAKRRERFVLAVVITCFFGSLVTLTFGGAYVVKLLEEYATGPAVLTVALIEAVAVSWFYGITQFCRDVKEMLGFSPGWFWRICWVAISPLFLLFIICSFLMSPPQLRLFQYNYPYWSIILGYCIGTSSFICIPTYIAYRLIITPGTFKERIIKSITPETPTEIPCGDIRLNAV
In words: Radioligand binding experiment for 5-HT transporter ([3H]paroxetine). The settings on record: human platelet membranes, [3H]paroxetine 0.5 nM. The essentials: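 Competition binding on human platelet membranes (50-100 μg protein) in 50 mM Tris-HCl, 120 mM NaCl, 5 mM KCl with 0.5 nM [3H]paroxetine, 60 min at 25 °C, filtration and scintillation counting. Non-specific binding defined with 1 μM imipramine; pIC50 from nonlinear sigmoidal fits of percent total binding.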

For `CC(=Cc1ccc(F)cc1)CN1CCN(CC2ON=C3c4ccc(N5CCN(Cc6ccccc6)CC5)cc4OCC32)CC1` (stereo not drawn) [Compound 80], the melting point was in the range of 166.4 to 178.2 °C. At hα2A receptor, the IC50 is 126 nM. Moreover, the IC50 on hα2C receptor was 3.98 nM. Further, the IC50 on h5-HT transporter was 126 nM.
The compound `Clc1ccc(CN2CCN(CC3ON=C4c5cc6c(cc5OCC43)NCCO6)CC2)cc1` (stereo not drawn) [Compound 94] came in with a melting point of 186.5 to 198 °C. Further, at hα2A receptor, the IC50 is 316 nM. Besides, the IC50 on hα2C receptor was 31.6 nM. The compound further gave an IC50 on h5-HT transporter of 126 nM.
Consider `COc1ccc(Nc2ccc3c(c2)OCC2C3=NOC2CN2CCN(CC(C)=Cc3ccc(F)cc3)CC2)cc1` (stereo not drawn) [Compound 43], for which the melting point is 131.7 to 134.5 °C. Further, at hα2A receptor, the IC50 was 398 nM. Besides, the IC50 at hα2C receptor is 126 nM. This compound also had an IC50 on h5-HT transporter of 631 nM.
The compound `CC(=Cc1ccc(F)cc1)CN1CCN(CC2ON=C3c4ccc(N5CCOCC5)cc4OCC32)CC1` (stereo not drawn) [Compound 84] had a melting point of 179.2 to 188.8 °C. Also, the IC50 on hα2A receptor was 6.31 nM. The IC50 on hα2C receptor was 1.26 nM. Moreover, the IC50 on h5-HT transporter was 25.1 nM.
In the case of `COc1ccc(NC(=O)Nc2ccc3c(c2)OCC2C3=NOC2CN2CCN(C/C(C)=C/c3ccccc3)CC2)cc1OC` (stereo not drawn) [Compound 7], the melting point is 202.2 to 207.1 °C. The IC50 at hα2A receptor was 15.8 nM. Besides, at hα2C receptor, the IC50 was 5.01 nM. This compound gave an IC50 at h5-HT transporter of 31.6 nM.
In turn, `CC(=Cc1ccc(F)cc1)CN1CCN(CC2ON=C3c4ccc(N5CCN(c6ccccc6)CC5)cc4OCC32)CC1` (stereo not drawn) [Compound 79] showed a melting point of 203.5 to 206.2 °C. Also, the IC50 at hα2A receptor was 251 nM. For the same compound, on hα2C receptor, the IC50 is 7.94 nM. Further, the IC50 at h5-HT transporter was 200 nM.
On the same counts, the results for `CCOC(=O)CNC(=O)Nc1ccc2c(c1)OCC1C2=NOC1CN1CCN(CC(C)=Cc2ccccc2)CC1` (stereo not drawn) [Compound 63] are 175.3 to 177 °C, 7.94 nM, 1.58 nM and 31.6 nM.
On the same counts, the results for `COc1cc2c(cc1N1CCOCC1)OCC1C2=NOC1CN1CCN(CC(C)=Cc2ccccc2)CC1` (stereo not drawn) [Compound 82] are 143.5 to 145.9 °C, 1.58 nM, 1.26 nM and 39.8 nM.
On the same counts, the results for `C/C(=C\c1cccc(F)c1)CN1CCN(CC2ON=C3c4cc5c(cc4OCC32)NCCO5)CC1` (stereo not drawn) [Compound 89] are 145.4 to 153.1 °C, 3.98 nM, 1 nM and 3.98 nM.
The compound `CC(=Cc1ccccc1)CN1CCN(CC2ON=C3c4ccc(Nc5ccc(C)c(C)c5)cc4OCC32)CC1` (stereo not drawn) [Compound 46] returned a melting point of 138.9 to 151.3 °C. Moreover, at hα2A receptor, the IC50 was 63.1 nM. Further, the IC50 at hα2C receptor was 39.8 nM. The same compound showed an IC50 on h5-HT transporter of 316 nM.
On the same counts, the results for `CC(=Cc1ccccc1)CN1CCN(CC2ON=C3c4ccc(NC(=O)NC(C)(C)C)cc4OCC32)CC1` (stereo not drawn) [Compound 61] are 98.4 to 113.5 °C, 7.94 nM, 2 nM and 20 nM.
`CC(=Cc1ccccc1)CN1CCN(CC2ON=C3c4ccc(Nc5ccccc5)cc4OCC32)CC1` (stereo not drawn) [Compound 40]: the melting point is 127.1 to 131.4 °C. The IC50 on hα2A receptor was 15.8 nM. Besides, the IC50 on hα2C receptor is 10 nM. For the same compound, the IC50 at h5-HT transporter is 50.1 nM.
On the same counts, the results for `CC(=Cc1ccc(F)cc1)CN1CCN(CC2ON=C3c4ccc(N5CCN(C)CC5)cc4OCC32)CC1` (stereo not drawn) [Compound 77] are 147.3 to 150.6 °C, 39.8 nM, 2.51 nM and 3.16 nM.
On the same counts, the results for `CC(=Cc1ccc(F)cc1)CN1CCN(CC2ON=C3c4ccc(N5CCCCC5)cc4OCC32)CC1` (stereo not drawn) [Compound 71] are 168.2 to 169.4 °C, 63.1 nM, 6.31 nM and 100 nM.
`CC(=Cc1ccc(F)cc1)CN1CCN(CC2ON=C3c4ccc(NCCN5CCCC5)cc4OCC32)CC1` (stereo not drawn) [Compound 28]: the melting point lay within 108.3 to 121.8 °C. For the same compound, on hα2A receptor, the IC50 is 63.1 nM. For the same compound, the IC50 on hα2C receptor is 3.98 nM. This compound also had an IC50 on h5-HT transporter of 3.16 nM.
With `c1ccc2cc(CN3CCN(CC4ON=C5c6cc7c(cc6OCC54)NCCO7)CC3)ccc2c1` (stereo not drawn) [Compound 92], the melting point lay in the range of 85.3 to 103.9 °C. Besides, the IC50 at hα2A receptor was 20 nM. Besides, the IC50 at hα2C receptor is 2.51 nM. Besides, the IC50 on h5-HT transporter was 5.01 nM.
The compound `CC(=O)Nc1ccc2c(c1)OCC1C2=NOC1CN1CCN(C/C(C)=C/c2ccccc2)CC1` (stereo not drawn) [Compound 6] registered a melting point of 112.1 to 126.7 °C. Moreover, the IC50 at hα2A receptor is 3.16 nM. Moreover, at hα2C receptor, the IC50 is 2.51 nM. This compound also gave an IC50 on h5-HT transporter of 50.1 nM.
On the same counts, the results for `C/C(=C\c1ccccc1)CN1CCN(CC2ON=C3c4cc(N5CCOCC5)ccc4OCC32)CC1` (stereo not drawn) [Compound 4] are 121.8 to 125.9 °C, 12.6 nM, 2.51 nM and above 1000 nM.
On the same counts, the results for `CC(=Cc1ccccc1)CN1CCN(CC2ON=C3c4ccc(NC(=O)Nc5ccccc5)cc4OCC32)CC1` (stereo not drawn) [Compound 64] are 180.3 to 181.6 °C, 25.1 nM, 15.8 nM and 251 nM.
As to `COc1cc2c(cc1NCCN(C)C)OCC1C2=NOC1CN1CCN(CC(C)=Cc2ccc(F)cc2)CC1` (stereo not drawn) [Compound 24], the melting point was 157.7 to 159.9 °C. In addition, the IC50 at hα2A receptor is 25.1 nM. Moreover, the IC50 on hα2C receptor is 1.58 nM. The same compound showed an IC50 on h5-HT transporter of 5.01 nM.
On the same counts, the results for `CCOC(=O)C1CCN(c2ccc3c(c2)OCC2C3=NOC2CN2CCN(CC(C)=Cc3ccc(F)cc3)CC2)CC1` (stereo not drawn) [Compound 72] are 156.4 to 161 °C, 100 nM, 20 nM and 631 nM.
On the same counts, the results for `COc1cc2c(cc1N1CCN(C)CC1)OCC1C2=NOC1CN1CCN(CC(C)=Cc2ccccc2)CC1` (stereo not drawn) [Compound 75] are 142.8 to 144.4 °C, 1.58 nM, below 1 nM and 7.94 nM.
On the same counts, the results for `C=CC(=O)Nc1ccc2c(c1)OCC1C2=NOC1CN1CCN(CC(C)=Cc2ccccc2)CC1` (stereo not drawn) [Compound 54] are 136.1 to 172.9 °C, 1.58 nM, 0.794 nM and 25.1 nM.
`COc1cc2c(cc1NCCN(C)C)OCC1C2=NOC1CN1CCN(C/C(C)=C/c2ccccc2)CC1` (stereo not drawn) [Compound 9]: the melting point was in the range of 154.5 to 157.9 °C. The IC50 at hα2A receptor is 5.01 nM. Further, the IC50 at hα2C receptor was 1000 nM. Also, the IC50 at h5-HT transporter was 5.01 nM.
The compound `CC(=Cc1ccccc1)CN1CCN(CC2ON=C3c4ccc(NC(=O)NC5CCCCC5)cc4OCC32)CC1` (stereo not drawn) [Compound 62] registered a melting point of 121.1 to 136.5 °C. At hα2A receptor, the IC50 was 25.1 nM. In addition, the IC50 at hα2C receptor is 6.31 nM. At h5-HT transporter, this compound showed an IC50 of 39.8 nM.
`CC(=Cc1ccccc1)CN1CCN(CC2ON=C3c4ccc(N(S(C)(=O)=O)S(C)(=O)=O)cc4OCC32)CC1` (stereo not drawn) [Compound 66] displayed a melting point of 201.8 to 202.9 °C. Besides, on hα2A receptor, the IC50 was 5.01 nM. The IC50 on hα2C receptor is 0.501 nM. Further, the IC50 on h5-HT transporter is 39.8 nM.
On the same counts, the results for `COCC(=O)N1CCOc2cc3c(cc21)OCC1C3=NOC1CN1CCN(C/C(C)=C/c2ccccc2)CC1` (stereo not drawn) [Compound 15] are 118.9 to 127.6 °C, 3.16 nM, 0.794 nM and 10 nM.

By melting point is commonly meant the temperature of the solid-liquid transition.

For the origin of these results see patent US7265103B2, “Substituted amino isoxazoline derivatives and their use as anti-depressants” (Janssen Pharmaceutica NV., priority 2002, dated 2007).
